Laboratory results taken from patent US9023821B2, “Use of MicroRNA for treating diseases associated with a dysfunction of the cilia in multiciliated epithelial cells” (Centre National de la Recherche Scientifique, priority 2009, dated 2015).
{Chol} = cholesterol

Legend:
[1] = system: HAEC cells; test: Ciliogenesis of HAEC cells under blocking of the Notch signalling pathway; format: cell-based, human; details: 10 μM
[2] = system: HAEC cells; test: Ciliogenesis of HAEC cells treated with antagomir during regeneration (tubulin-β4 positive cells); format: cell-based, human; details: number of ciliated HAEC cells at stage ALI-D21, n=6, P<0.001
Experimental: (a,b) the HEAC cells are treated several times with anti-miR-449 antagomirs or a control antagomir (20 nM) during their regeneration (generally 21 days). The percentage of ciliated cells was defined as the ratio of the number of cells positive to +tubulin-β4 relative to the number of nuclei (20 fields/filter and 3 filters/donor). […] The histogram indicates the percentage of ciliated cells per field for each experimental condition (n=6, ***, P<0.001, Student test).
Six independent cultures of HAEC cells were transfected with an oligonucleotide directed against the miR-449s and conjugated with a cholesterol molecule; ciliogenesis was evaluated during the regeneration time.
These tests use an antisense oligonucleotide of miR-449a (antagomir) bound at 3′ by a 2′-O-methyl bond to a molecule of cholesterol and with the sequence: 5′-ascscsagcuaacaauacacugcscsa-Chol-3′ (SEQ. ID. No. 207) (the phosphorothioate bonds are indicated by the subscript J (obtained according to Eurogentec (Seraing, Belgium).
The antagomir (100 μM) was preincubated in fetal calf serum (FCS) for 30 min RT. Then the antagomir-FCS mixture in a differentiation medium (20 μM of antagomir) is added on the apical face of the primary HAEC cells. After 2 h at 37° C., the mixture is withdrawn to restore the air-liquid interface. […]

[3] = system: miR-449; test: Expression of miRNAs in HAEC cells treated with antagomir; format: cell-based, human
[4] = system: human airway epithelial cells (HAECs); test: High-throughput sequencing (HTS) of miRNAs at four stages of differentiation of HAECs; details: for Modulation (ratio of the level of intensity of expression in log2 in two stages of differentiation) measured by high-throughput sequencing, D7 − D0 / Modulation (ratio of the level of intensity of expression in log2 in two stages of differentiation) measured by high-throughput sequencing, FC − D7 / Modulation (ratio of the level of intensity of expression in log2 in two stages of differentiation) measured by high-throughput sequencing, WD − D0 / Modulation (ratio of the level of intensity of expression in log2 in two stages of differentiation) measured by high-throughput sequencing, WD − FC / Level of intensity of expression in log2 measured by high-throughput sequencing, D0 / Level of intensity of expression in log2 measured by high-throughput sequencing, D7 / Level of intensity of expression in log2 measured by high-throughput sequencing, FC / Level of intensity of expression in log2 measured by high-throughput sequencing, WD: Table VI; for Modulation (ratio of the level of intensity of expression in log2 in two stages of differentiation), D7 − D0 / Modulation (ratio of the level of intensity of expression in log2 in two stages of differentiation), FC − D7 / Modulation (ratio of the level of intensity of expression in log2 in two stages of differentiation), WD − FC / Abundance (%), D0 / Abundance (%), D7 / Abundance (%), FC / Abundance (%), WD: HTS; for Abundance (%), D0: ALI-D0; for Abundance (%), D7: ALI-D7; for Abundance (%), FC: ALI-FC; for Abundance (%), WD: ALI-WD; for Level of intensity of expression in log2 At the differentiated stage (WD) measured in HTS: healthy human airway epithelial tissue; for Level of intensity of expression in log2 measured by high-throughput sequencing, D0: stage D0; for Level of intensity of expression in log2 measured by high-throughput sequencing, D7: stage D7; for Level of intensity of expression in log2 measured by high-throughput sequencing, FC: stage FC; for Level of intensity of expression in log2 At the differentiated stage (WD) measured in HTS / Level of intensity of expression in log2 measured by high-throughput sequencing, WD: stage WD
How it was run: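 Differentiation time course at air-liquid interface: 0, 7, ~14 (first cilia) and ~21 days (fully differentiated). Sequencing counts per strand were normalized to 10^6 sequences and analysed by linear model with empirical Bayesian moderation.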

[5] = system: human airway epithelial cells (HAECs); test: Agilent miRNA chips, miRNA expression at four stages of differentiation of HAECs; details: for Modulation (ratio of the level of intensity of expression in log2 in two stages of differentiation) measured with the Agilent chips, D7 − D0 / Modulation (ratio of the level of intensity of expression in log2 in two stages of differentiation) measured with the Agilent chips, FC − D7 / Modulation (ratio of the level of intensity of expression in log2 in two stages of differentiation) measured with the Agilent chips, WD − D0 / Modulation (ratio of the level of intensity of expression in log2 in two stages of differentiation) measured with the Agilent chips, WD − FC / Level of intensity of expression in log2 measured with the Agilent chips, D0 / Level of intensity of expression in log2 measured with the Agilent chips, D7 / Level of intensity of expression in log2 measured with the Agilent chips, FC / Level of intensity of expression in log2 measured with the Agilent chips, WD: Table VI; for Modulation (ratio of the level of intensity of expression in log2 at two stages of differentiation), FC − D7 / Modulation (ratio of the level of intensity of expression in log2 at two stages of differentiation), WD − FC: Agilent miRNA chips, Table V; for Level of intensity of expression in log2 measured with the Agilent chips, D0: stage D0; for Level of intensity of expression in log2 measured with the Agilent chips, D7: stage D7; for Level of intensity of expression in log2 measured with the Agilent chips, FC: stage FC; for Level of intensity of expression in log2 measured with the Agilent chips, WD: stage WD
How it was run: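 Arrays probing 866 human and 89 human viral miRNAs were used in parallel with sequencing. The same patients' RNA was labelled and hybridized following the manufacturer's protocol.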

[6] = system: basal cells and pyramidal cells of the airway epithelium; test: miRNA expression in sorted basal cells versus pyramidal cells (ciliated + secretory), HTS and Agilent chips; parameters: species or system human; details: for Modulation of expression of the miRNAs in pyramidal cells (323(−)) relative to basal cells 323(+): HTS and Agilent chips; for Intensity of the level of expression in log2 in pyramidal cells (323(−)): pyramidal cells (ciliated + secretory)
How it was run: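 Sorted basal versus ciliated/mucus-secreting cells; markers CD151 and tissue factor; donors n=3; miRNA by Agilent chip or HTS.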

Row | Molecule | Modulation (ratio of the level of intensity of expression in log2 in two stages of differentiation) measured by high-throughput sequencing, D7 − D0 [4] [log2] | Modulation (ratio of the level of intensity of expression in log2 in two stages of differentiation) measured by high-throughput sequencing, FC − D7 [4] [log2] | Modulation (ratio of the level of intensity of expression in log2 in two stages of differentiation) measured by high-throughput sequencing, WD − D0 [4] [log2] | Modulation (ratio of the level of intensity of expression in log2 in two stages of differentiation) measured by high-throughput sequencing, WD − FC [4] [log2] | Level of intensity of expression in log2 At the differentiated stage (WD) measured in HTS [4] [log2] | Level of intensity of expression in log2 measured by high-throughput sequencing, D0 [4] [log2] | Level of intensity of expression in log2 measured by high-throughput sequencing, D7 [4] [log2] | Level of intensity of expression in log2 measured by high-throughput sequencing, FC [4] [log2] | Level of intensity of expression in log2 measured by high-throughput sequencing, WD [4] [log2] | Modulation (ratio of the level of intensity of expression in log2 in two stages of differentiation) measured with the Agilent chips, D7 − D0 [5] [log2] | Modulation (ratio of the level of intensity of expression in log2 in two stages of differentiation) measured with the Agilent chips, FC − D7 [5] [log2] | Modulation (ratio of the level of intensity of expression in log2 in two stages of differentiation) measured with the Agilent chips, WD − D0 [5] [log2] | Modulation (ratio of the level of intensity of expression in log2 in two stages of differentiation) measured with the Agilent chips, WD − FC [5] [log2] | Level of intensity of expression in log2 measured with the Agilent chips, D0 [5] [log2] | Level of intensity of expression in log2 measured with the Agilent chips, D7 [5] [log2] | Level of intensity of expression in log2 measured with the Agilent chips, FC [5] [log2] | Level of intensity of expression in log2 measured with the Agilent chips, WD [5] [log2] | Modulation of expression of the miRNAs in pyramidal cells (323(−)) relative to basal cells 323(+) [6] | Intensity of the level of expression in log2 in basal cells (323(+)) [6] [log2] | Intensity of the level of expression in log2 in pyramidal cells (323(−)) [6] [log2] | further results
1 | C[C@H](NC(=O)Cc1cc(F)cc(F)c1)C(=O)N[C@H](C(=O)OC(C)(C)C)c1ccccc1 [DCT] | – | – | – | – | – | – | – | – | – | – | – | – | – | – | – | – | – | – | – | – | ciliogenesis during regeneration of the HAEC cells [1]: potentiates ciliogenesis significantly
2 | anti-miR-449 antagomir: antisense oligonucleotide of miR-449a bound at 3′ to cholesterol, 5′-ascscsagcuaacaauacacugcscsa-Chol-3′ (SEQ. ID. No. 207) (antisense ACCAGCUAACAAUACACUGCCA; linkages s3 o16 s2 (s phosphorothioate, o phosphodiester), 3' {Chol}, sugars by position and methylation of C not given here; further chemistry not fully specified; listed as Homo sapiens) | – | – | – | – | – | – | – | – | – | – | – | – | – | – | – | – | – | – | – | – | mean value of inhibition of ciliogenesis [2]: 2.3±0.3; expression of miR449a ([3]; n=6): suppresses; expression of miR-21 ([3]; n=6): no effect; expression of miR-449b ([3]; n=6): suppresses; expression of miR-449 ([3]; stage ALI-D21): reduction of the same order
3 | hsa-miR-449a: human miRNA, SEQ ID No. 46 (UGGCAGUGUAUUGUUAGCUGGU; expressed or natural sequence; listed as Homo sapiens) | 5.21 | 5.21 | 10.63 | 0.21 | 12.24 | 4.48 | 9.69 | 14.90 | 15.11 | 6.53 | 5.70 | 12.08 | −0.15 | 1.47 | 8.00 | 13.70 | 13.54 | 6.07 | 2.81 | 8.88 | Modulation (ratio of the level of intensity of expression in log2 in two stages of differentiation), D7 − D0 [4]: 5.21 log2; Modulation (ratio of the level of intensity of expression in log2 in two stages of differentiation), FC − D7 [4]: 5.21 log2; Modulation (ratio of the level of intensity of expression in log2 in two stages of differentiation), WD − FC [4]: 0.21 log2; Abundance (%), D0 [4]: 0.00%; Abundance (%), D7 [4]: 0.18%; Abundance (%), FC [4]: 6.49%; Abundance (%), WD [4]: 5.70%; Modulation (ratio of the level of intensity of expression in log2 at two stages of differentiation), FC − D7 [5]: 5.70 log2; Modulation (ratio of the level of intensity of expression in log2 at two stages of differentiation), WD − FC [5]: −0.15 log2
4 | hsa-miR-574-3p: human miRNA, SEQ ID No. 48 (CACGCUCAUGCACACACCCACA; expressed or natural sequence; listed as Homo sapiens) | 0.48 | 0.12 | 0.92 | 0.32 | 13.42 | 13.64 | 14.12 | 14.24 | 14.56 | 1.69 | −0.46 | 1.04 | −0.18 | 4.73 | 6.42 | 5.96 | 5.77 | 0.91 | 3.53 | 4.44 | Modulation (ratio of the level of intensity of expression in log2 in two stages of differentiation), D7 − D0 [4]: 0.48 log2; Modulation (ratio of the level of intensity of expression in log2 in two stages of differentiation), FC − D7 [4]: 0.12 log2; Modulation (ratio of the level of intensity of expression in log2 in two stages of differentiation), WD − FC [4]: 0.32 log2; Abundance (%), D0 [4]: 2.80%; Abundance (%), D7 [4]: 3.92%; Abundance (%), FC [4]: 4.12%; Abundance (%), WD [4]: 3.90%
5 | hsa-miR-939: human miRNA, SEQ ID No. 50 (UGGGGAGCUGAGGCUCUGGGGGUG; expressed or natural sequence; listed as Homo sapiens) | 0.13 | −0.13 | 0.00 | 0.00 | 5.43 | 0.01 | 0.15 | 0.01 | 0.01 | 1.40 | −0.63 | 0.70 | −0.07 | 6.64 | 8.04 | 7.41 | 7.34 | 1.28 | 4.81 | 6.08 | Modulation (ratio of the level of intensity of expression in log2 at two stages of differentiation), FC − D7 [5]: −0.63 log2; Modulation (ratio of the level of intensity of expression in log2 at two stages of differentiation), WD − FC [5]: −0.07 log2
